Experiment in all cases: growth of human tumour cells (NCI), 48 h
Test [1] relates to SW-620 colon.
Test [2] concerns TK-10 renal.
Test [3] deals with HT29 colon.
In test [4] the test system is MDA-MB-231 breast.
Test [5] deals with A549 NSCLC.
Test [6] concerns KM12 colon.
For test [7], the system named is CAKI-1 renal.
The subject of test [8] is SR leukemia.
Test [9] concerns M14 melanoma.
Test [10] concerns HCT-15 colon.

SMILES strings stand for the structures. Several values for one entry are separate records, joined by “and”; a condition that tells them apart may be missing. Identical values can stand only once.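 Method: 48-hour compound exposure of cells in 96-well plates, five concentrations, linear interpolation of endpoints. GI50 = concentration required for 50% inhibition of growth. The concentration for full growth arrest is given as TGI.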

With `O=C(/C=C/c1ccco1)Nc1ncc(Cc2ccc(F)cc2)s1`, the GI50 in [1] was 0.0443 µM; in test [2], 10.2 µM; in [3] it was 0.0366 µM; in test [4], 0.199 µM; in test [5], 0.118 µM; in [6] it was 0.0486 µM. Also, the GI50 in test [7] was 0.0525 µM; in test [8] it was 0.0356 µM; in test [9] it was 0.036 µM; in [10], 0.0461 µM. The TGI is greater than 100 µM in test [1]; greater than 100 µM in [2]; greater than 100 µM in test [3]; greater than 45.4 µM in test [4]; greater than 100 µM in [5]; greater than 100 µM in test [6]. The TGI is greater than 100 µM in [7], greater than 68 µM in [8], greater than 100 µM in [9] and greater than 100 µM in test [10].

For the compound `COc1ccc(C(O)c2cc3c(N)c(C(=O)Nc4cccc(Br)c4)sc3nc2C)cc1` (configuration not stated), the GI50 is 0.126 µM in [1]; 9.26 µM in test [2]; 0.109 µM in test [3]; 0.104 µM in test [4]; 0.14 µM in test [5]; 0.117 µM in test [6]. Further, the GI50 is 0.141 µM in test [7], 0.0979 µM in test [8], 0.0318 µM in test [9] and 0.121 µM in test [10]. Moreover, the TGI in test [1] was greater than 100 µM; in test [2], greater than 95.1 µM; in [4] it was 1.63 µM; in [5], greater than 100 µM; in test [7], greater than 32 µM; in test [8], greater than 32.7 µM. Further, the results for the TGI in test [9] and in test [10] were 14.1 µM and greater than 43 µM, respectively.

As to `Oc1ccccc1-n1c(-c2ccccc2)ccc1-c1ccccc1`, the GI50 in test [1] is 5.49 µM; in test [2] it was 11.1 µM; in test [3], 2.22 µM; in test [4] it was 4.21 µM; in [5], 4.62 µM; in test [6] it was 4.05 µM. In addition, the GI50 in [7] was 3.85 µM; in test [8], 4.2 µM; in test [9], 3.71 µM; in test [10], 5.57 µM. The TGI came out at 20.2 µM in test [1]; 24.1 µM in [2]; 11 µM in test [3]; 22.1 µM in test [4]; 19.6 µM in [5]; 19.3 µM in test [6]. The TGI stood at 18.1 µM in test [7], 18 µM in test [8], 29.2 µM in test [9] and 28.7 µM in test [10].

Regarding `Cn1c(O)c(C(=O)Nc2ccc([N+](=O)[O-])cc2)c(=O)n(C)c1=S`, the TGI in [1] came out at 31.3 µM; in test [2], 10.7 µM; in test [3], 8.33 µM; in test [4], 6.12 µM; in test [5], 32.5 µM; in [6], 7.05 µM. The TGI is 10.6 µM in [7], greater than 100 µM in test [8], 22.9 µM in test [9] and 7.02 µM in test [10].

In the case of `COc1ccc(C(Nc2ncccn2)c2cc3c(cc2O)OCO3)cc1` (configuration not stated), the TGI was 28.3 µM in [1]; 37.6 µM in test [2]; 58.4 µM in test [3]; 48.2 µM in [4]; greater than 100 µM in test [5]; 37.8 µM in test [6]. Besides, the TGI in test [7] was 46.9 µM; in test [8], 32.4 µM; in [9], 39.4 µM; in test [10], 44.6 µM.

Take `CN(Cc1cnc2nc(N)nc(N)c2n1)c1ccc(C(=O)NC(CCC(=O)O)C(=O)O)cc1` (configuration not stated): the GI50 in test [1] was 0.0456 µM; in test [2], greater than 100 µM; in test [3], 0.0564 µM; in [4], greater than 24 µM; in test [5], 0.0605 µM; in test [6], 0.0875 µM. Besides, the GI50 in [7] is 0.0544 µM; in [8] it was 0.05 µM; in test [9] it was 0.0777 µM; in test [10] it was 0.0623 µM. In addition, the TGI in [1], in test [2], in [3], in [4], in test [5] and in test [6] was greater than 100 µM throughout. Moreover, the TGI in test [7], in test [8], in test [9] and in test [10] was greater than 100 µM each time.

Consider `Cn1cnc([N+](=O)[O-])c1Sc1ncnc2c1ncn2C1OC(CO)C(O)C1O` (configuration not stated), for which the GI50 in test [1] is 32.6 µM; in [2] it was 4.58 µM; in test [3], 7.3 µM; in test [4], 9.62 µM; in test [5] it was 29.3 µM; in test [6], 6.34 µM. For the same compound, the GI50 in test [7] was 3.53 µM; in test [8], 5.2 µM; in [9] it was 2.29 µM; in [10], 11.6 µM. Further, the TGI in [1], in test [2], in [3], in test [4], in [5] and in test [6] was greater than 100 µM each time. The TGI in test [7], in test [8], in [9] and in [10] was greater than 100 µM each time.

For `CN(C)c1ccc(/C=C/c2ccnc3ccccc23)cc1`, the GI50 is 2.96 µM in test [1]; 9.49 µM in test [2]; 3.18 µM in test [3]; 5.36 µM in test [4]; 4.14 µM in test [5]; 3.11 µM in test [6]. Further, the GI50 in test [7] is 9.68 µM; in test [9], 2.55 µM; in [10], 3.76 µM. Moreover, the TGI in [1] is greater than 100 µM; in test [2] it was > 100 µM and 58.4 µM; in test [3] it was 84.3 µM and 11.8 µM; in test [4], > 100 µM and 30 µM; in test [5], greater than 100 µM; in [6] it was > 100 µM and 33.7 µM. Also, the TGI in test [7] is > 100 µM and 45 µM; in test [8], greater than 100 µM; in test [9], > 100 µM and 12.7 µM; in [10] it was greater than 100 µM.

These data come from PubChem BioAssay (NCI).
